{"source": "paper PMC12587786", "about": "“In vitro α-glucosidase inhibition, molecular dynamics and docking study of phenyl carbamoyl methoxy thiosemicarbazone derivatives as potential anti-diabetic agents” (Journal of Enzyme Inhibition and Medicinal Chemistry, 2025)", "key": {"[1]": {"target": "T1, α-glucosidase (from Saccharomyces cerevisiae EC 3.2.1.20) (Saccharomyces cerevisiae, UniProt P53341)", "T1 construct": "purchased Sigma", "T1 sequence (P53341 whole entry)": "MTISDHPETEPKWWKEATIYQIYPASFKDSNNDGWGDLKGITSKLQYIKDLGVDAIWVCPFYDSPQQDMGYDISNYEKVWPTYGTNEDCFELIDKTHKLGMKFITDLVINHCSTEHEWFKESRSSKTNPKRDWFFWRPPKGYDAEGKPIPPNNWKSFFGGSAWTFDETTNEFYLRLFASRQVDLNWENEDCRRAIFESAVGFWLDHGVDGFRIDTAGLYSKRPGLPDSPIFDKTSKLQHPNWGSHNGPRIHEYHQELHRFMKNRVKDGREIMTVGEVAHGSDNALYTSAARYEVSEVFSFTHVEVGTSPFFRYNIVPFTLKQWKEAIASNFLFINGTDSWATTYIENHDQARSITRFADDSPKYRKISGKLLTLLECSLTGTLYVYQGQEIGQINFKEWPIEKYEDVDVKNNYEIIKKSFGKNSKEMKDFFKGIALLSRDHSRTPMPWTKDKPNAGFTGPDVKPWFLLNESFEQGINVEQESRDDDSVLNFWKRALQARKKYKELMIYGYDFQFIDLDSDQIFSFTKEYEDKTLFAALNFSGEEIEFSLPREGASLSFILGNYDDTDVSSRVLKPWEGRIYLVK", "experiment": "biochemical", "method": "The method described by Azizian et al. with some modifications was used to assess αglucosidase inhibitory activity of novel derivatives of phenyl carbamoyl methoxy thiosemicarbazone. The enzyme solution was prepared of αglucosidase (1 U/mL) in a […] phosphate buffer (pH: 6.8). The final volume of assay solution in the 96-well plate was 200 µl, which was prepared in the following order: 20 µl of the enzyme solution was used to obtain a final enzyme activity of […] per well. 20 µl of various concentrations of novel inhibitors (1000, 500, 250, 125, 62.5, 31.25, and 15.62 µM) and potassium phosphate buffer (135 µl, pH = 6.8). The 96-well plate was incubated for 10 min at 37 °C and pNPG as substrate (25 µl, 4 mM) was added to each well of the plate and was incubated again for 30 min at 37 °C. Finally, absorbance was measured at 405 nm using a spectrophotometer (BioTek ELx808, USA). […] The IC50 values for the tested inhibitors were calculated using Microsoft Excel 2016 software and non-linear regression analysis."}, "[2]": {"experiment": "MTT cytotoxicity assay on MDA-MB-453 cells", "format": "cell-based, human", "conditions": "human, MDA-MB-453 cells (breast cancer cell line), 24 h, MTT, read-out: cell survival rate / cell viability; for viability at 24 h, 12.5 µM: MDA-MB-453, 12.5 µM; for viability at 24 h, 25 µM: MDA-MB-453, 25 µM; for viability at 24 h, 50 µM: MDA-MB-453, 50 µM; for viability at 24 h, 100 µM: MDA-MB-453, 100 µM", "method": "(§1) To evaluate the cytotoxic effects of novel derivatives of phenyl carbamoyl methoxy thiosemicarbazone, an MTT assay was conducted using the non-small cell lung carcinoma cell line A549 and the MDA-MB-453 human breast cancer cell line. Both cell lines were obtained from the Pasteur Institute in Iran, and the assay was performed following the method of Jelena et al.[15], with some minor modifications.\n(§2) In short, 100 µl of A549 cells (1 × 10^5) cultured in DMEM (Dulbecco’s modified Eagle’s medium) enriched with 10% foetal bovine serum (FBS) and 100 U/mL penicillin. […] streptomycin were added to each well in a 96-well plate, and they were incubated at 37 °C and 5% CO2 for 24 h. Also, 100 µl of MDA-MB-453 cells (1 × 10^5) cultured in RPMI enriched with 10% FBS and 100 U/mL penicillin and […] streptomycin were added to each well in a 96-well plate and were incubated at 37 °C and 5% CO2 for 24 h. Subsequently, the medium in both cell lines was replaced with different concentrations (12.5, 25, 50, and 100 µM) of two derivatives of 7e and 7 g, and plates were incubated at 37 °C and 5% CO2 for 24 h. After that, 10 µl of MTT (3–4, 5 dimethyl thiazol- 2 yl)-2, 5- diphenyl tetrazolium bromide) (Sigma USA) dye ([…] in PBS) was added to each well and incubated for 4 h at 37 °C. After 4 h, the solution was removed from the cells, and 100 µl of DMSO (dimethyl sulfoxide) was added to the wells. The optical density of each well was measured at 570 nm using an ELISA reader (BioTek ELx808, USA). The wells containing more cells have a higher optical density (OD) than those with fewer cells. Therefore, the wells with more cells can be identified using the following equation and compared with the control sample. Toxicity%=1−mean OD of sample/mean OD of control∗100 viability%=100−Toxicity %\n(§3) PBS buffer and 1% Triton X-100 were negative and positive controls, respectively. All tests were conducted in triplicate."}, "[3]": {"experiment": "MTT cytotoxicity assay on A549 cells", "format": "cell-based", "conditions": "human, A549 cells (non-small cell lung carcinoma cell line), 24 h, MTT, read-out: cell viability rate; for viability at 24 h, 12.5 µM: A549, 12.5 µM; for viability at 24 h, 25 µM: A549, 25 µM; for viability at 24 h, 50 µM: A549, 50 µM; for viability at 24 h, 100 µM: A549, 100 µM", "method": "as §1, §2, §3"}, "[4]": {"system": "MDA-MB-453 human breast cancer cell line", "experiment": "MTT cytotoxicity assay on MDA-MB-453 cells", "format": "cell-based", "conditions": "MDA-MB-453", "method": "as §1, §2, §3"}, "[5]": {"target": "T2, α-glucosidase (Saccharomyces cerevisiae, UniProt P53341)", "T2 construct": "purchased Sigma", "T2 sequence (P53341 whole entry)": "as above", "experiment": "Kinetic study of α-glucosidase inhibition (Lineweaver-Burk and secondary plots)", "format": "biochemical", "method": "Kinetic studies were conducted to determine the inhibition mechanism of the strongest novel inhibitor with the lowest IC50. […] The experimental inhibitor constant[42] was made using secondary plots.\nThis was achieved using Lineweaver–Burk plots to determine the type of inhibition mechanism and the Km value. […] This mode of inhibition is particularly advantageous for antidiabetic therapy, as it facilitates glucose-dependent modulation of enzyme activity. […] These attributes highlight the promise of 7e as a therapeutic agent for managing postprandial glucose levels in individuals with type 2 DM."}, "[6]": {"system": "non-small cell lung carcinoma cell line A549", "experiment": "MTT cytotoxicity assay on A549 cells", "format": "cell-based", "conditions": "A549", "method": "as §1, §2, §3"}, "[7]": {"conditions": "pNPG substrate, pH 6.8, 37 °C, mean ± SD, n = 3, read-out: IC50 (µM) ± SD, α-glucosidase inhibitory activity"}}, "note": "“Also recorded” adds a separate entry of the source. Read-outs that look alike come from different tables or passages of the source."}
{"compound": "CCc1ccc(NC(=O)COc2ccc(/C=N\\NC(N)=S)cc2OC)cc1", "note": "[Compound 7c, 2-{4-[(Z)-[(carbamothioylamino)imino]methyl]-2-methoxyphenoxy}-N-(4-ethylphenyl) acetamide]", "values": [{"measurement": "IC50", "setting": "[1]; [7]", "value": "95.99 ± 0.273", "unit": "µM"}]}
{"compound": "COc1cc(/C=N\\NC(N)=S)ccc1OCC(=O)Nc1ccc(Cl)cc1", "note": "[Compound 7k, 2-{4-[(Z)-[(carbamothioylamino)imino]methyl]-2-methoxyphenoxy}-N-(4-chlorophenyl) acetamide]", "values": [{"measurement": "IC50", "setting": "[1]", "value": "442.41 ± 0.009", "unit": "µM"}]}
{"compound": "COc1cc(/C=N\\NC(N)=S)ccc1OCC(=O)Nc1ccccc1", "note": "[Compound 7a, 2-{4-[(Z)-[(carbamothioylamino)imino]methyl]-2-methoxyphenoxy}-N-phenylacetamide]", "values": [{"measurement": "IC50", "setting": "[1]", "value": "257 ± 0.491", "unit": "µM"}]}
{"compound": "COc1cc(/C=N\\NC(N)=S)ccc1OCC(=O)Nc1ccc(Br)cc1", "note": "[Compound 7h, N-(4-bromophenyl)-2-{4-[(Z)-[(carbamothioylamino)imino]methyl]-2-methoxyphenoxy} acetamide]", "values": [{"measurement": "IC50", "setting": "[1]; [7]", "value": "573.67 ± 0.043", "unit": "µM"}]}
{"compound": "COc1cc(/C=N\\NC(N)=S)ccc1OCC(=O)Nc1ccccc1F", "note": "[Compound 7n, 2-{4-[(Z)-[(carbamothioylamino)imino]methyl]-2-methoxyphenoxy}-N-(2-fluorophenyl) acetamide]", "values": [{"measurement": "IC50", "setting": "[1]", "value": "95.65 ± 0.056", "unit": "µM"}]}
{"compound": "2-{4-[(Z)-[(carbamothioylamino)imino]methyl]-2-methoxyphenoxy}-N-(4-methylphenyl) acetamide [Compound 7i]", "values": [{"measurement": "IC50", "setting": "[1]; [7]", "value": "125.9 ± 0.016", "unit": "µM"}]}
{"compound": "COc1ccc(NC(=O)COc2ccc(/C=N\\NC(N)=S)cc2OC)cc1", "note": "[Compound 7m, 2-{4-[(Z)-[(carbamothioylamino)imino]methyl]-2-methoxyphenoxy}-N-(4-methoxyphenyl) acetamide]", "values": [{"measurement": "IC50", "setting": "[1]; [7]", "value": "436.5 ± 0.062", "unit": "µM"}]}
{"compound": "COc1cc(/C=N\\NC(N)=S)ccc1OCC(=O)Nc1ccc(C)cc1", "note": "[Compound 7b, 2-{4-[(Z)-[(carbamothioylamino)imino]methyl]-2-methoxyphenoxy}-N-(4-methylphenyl) acetamide]", "values": [{"measurement": "IC50", "setting": "[1]; [7]", "value": "151.18 ± 0.02", "unit": "µM"}]}
{"compound": "COc1cc(C=NNC(N)=S)ccc1OCC(=O)NCc1ccccc1", "note": "[Compound 7d]", "values": [{"measurement": "IC50", "setting": "[1]", "value": "216.42 ± 0.025", "unit": "µM"}]}
{"compound": "COc1cc(/C=N\\NC(N)=S)ccc1OCC(=O)Nc1ccccc1Cl", "note": "[7 g, 2-{4-[(Z)-[(carbamothioylamino)imino]methyl]-2-methoxyphenoxy}-N-(2-chlorophenyl) acetamid]", "values": [{"measurement": "IC50", "setting": "[1]", "value": "62.2 ± 0.411", "unit": "µM"}, {"measurement": "viability at 24 h, 12.5 µM", "setting": "[2]", "value": 89.6, "unit": "%"}, {"measurement": "viability at 24 h, 25 µM", "setting": "[2]", "value": 66.7, "unit": "%"}, {"measurement": "viability at 24 h, 50 µM", "setting": "[2]", "value": 50.6, "unit": "%"}, {"measurement": "viability at 24 h, 100 µM", "setting": "[2]", "value": 41, "unit": "%"}, {"measurement": "viability at 24 h, 12.5 µM", "setting": "[3]", "value": 96.2, "unit": "%"}, {"measurement": "viability at 24 h, 25 µM", "setting": "[3]", "value": 72.4, "unit": "%"}, {"measurement": "viability at 24 h, 50 µM", "setting": "[3]", "value": 57.3, "unit": "%"}, {"measurement": "viability at 24 h, 100 µM", "setting": "[3]", "value": 27.7, "unit": "%"}]}
{"compound": "COc1cc(/C=N\\NC(N)=S)ccc1OCC(=O)Nc1cccc([N+](=O)[O-])c1", "note": "[Compound 7f, 2-{4-[(Z)-[(carbamothioylamino)imino]methyl]-2-methoxyphenoxy}-N-(3-nitrophenyl) acetamide]", "values": [{"measurement": "IC50", "setting": "[1]", "value": "328.17 ± 0.083", "unit": "µM"}]}
{"compound": "COc1cc(/C=N\\NC(N)=S)ccc1OCC(=O)Nc1cccc(C)c1", "note": "[Compound 7e, 2-{4-[(Z)-[(carbamothioylamino)imino]methyl]-2-methoxyphenoxy}-N-(3-methylphenyl) acetamide]", "values": [{"measurement": "IC50", "setting": "[1]", "value": "23.95 ± 0.038", "unit": "µM"}, {"measurement": "viability at 24 h, 12.5 µM", "setting": "[2]", "value": 97.4, "unit": "%"}, {"measurement": "viability at 24 h, 25 µM", "setting": "[2]", "value": 74.7, "unit": "%"}, {"measurement": "viability at 24 h, 50 µM", "setting": "[2]", "value": 66.3, "unit": "%"}, {"measurement": "viability at 24 h, 100 µM", "setting": "[2]", "value": 57.2, "unit": "%"}, {"measurement": "cytotoxic activity (in words)", "setting": "[4]", "value": "did not possess important cytotoxic activity; also recorded: low cytotoxicity"}, {"measurement": "Ki", "setting": "[5]", "value": 34.8, "unit": "µM"}, {"measurement": "Type of inhibition mechanism", "setting": "[5]; Lineweaver–Burk plots", "value": "competitive inhibitor"}, {"measurement": "Vmax with increasing inhibitor concentration", "setting": "[5]; inhibitor 0-250 µM", "value": "remained unchanged"}, {"measurement": "viability at 24 h, 12.5 µM", "setting": "[3]", "value": 95.5, "unit": "%"}, {"measurement": "viability at 24 h, 25 µM", "setting": "[3]", "value": 84.3, "unit": "%"}, {"measurement": "viability at 24 h, 50 µM", "setting": "[3]", "value": 75.2, "unit": "%"}, {"measurement": "viability at 24 h, 100 µM", "setting": "[3]", "value": 63.7, "unit": "%"}, {"measurement": "cytotoxic activity (in words)", "setting": "[6]", "value": "did not possess important cytotoxic activity; also recorded: low cytotoxicity"}]}
{"compound": "COc1cc(/C=N\\NC(N)=S)ccc1OCC(=O)Nc1ccc(C)cc1C", "note": "[Compound 7l, 2-{4-[(Z)-[(carbamothioylamino)imino]methyl]-2-methoxyphenoxy}-N-(2,4-dimethylphenyl) acetamide]", "values": [{"measurement": "IC50", "setting": "[1]", "value": "122.72 ± 0.098", "unit": "µM"}]}
{"compound": "COc1cc(/C=N\\NC(N)=S)ccc1OCC(=O)Nc1cccc(C)c1C", "note": "[Compound 7j, 2-{4-[(Z)-[(carbamothioylamino)imino]methyl]-2-methoxyphenoxy}-N-(2,3-dimethylphenyl) acetamide]", "values": [{"measurement": "IC50", "setting": "[1]", "value": "103.91 ± 0.028", "unit": "µM"}]}
